In one series the test system is Variegated Cutworm. In words: Field trial (first summer), stomach. The series is classed as in vivo. The settings on record: 500 ppm.
The next series deals with Cabbage Looper. In words: Field trial (first summer), stomach. The series is classed as in vivo. The settings on record: 500 ppm.
A short description of a further series: Acute oral toxicity. The settings on record: in vivo, read-out: Est. LD50. From the text:
(§1) While the compounds of this invention resemble the organic phosphates in being toxic upon ingestion, they differ from the organic phosphates in having a low toxicity when applied to the skin. The following charts give the estimated acute oral and acute dermal toxicities of 2,6-bis(trifluoromethyl)-4-nitrobenzimidazole in several species of mammals.

The next series deals with Asparagus Beetles Larvae. The experiment in a line: Field trial, stomach poison test. The series is classed as in vivo. In a few lines:
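Insects, five or ten per dish, are fed air-dried leaves that were dipped in or sprayed with the compound at two or three rates. Mortality is rated 0–9 at 24, 48 and 72 h and averaged per concentration.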

The next series in a line: Acute dermal toxicity. The series is classed as in vivo. The settings on record: rabbit.
Source text: as §1

`O=[N+]([O-])c1cc(C(F)(F)F)cc2nc(C(F)(F)F)[nH]c12` [A, 2,6-bis(trifluoromethyl)-4-nitrobenzimidazole]: the insect mortality rating with Variegated Cutworm is 5; in the series with Cabbage Looper, 9 (91-100 percent mortality). Besides, the LD50 in “Acute oral toxicity” (guinea pig, male) was 15 mg/kg; in “Acute oral toxicity” (mouse, female), 27 mg/kg; in “Acute oral toxicity” (rat, female), 19 to 22 mg/kg; in the series “Acute oral toxicity” (rat, male), 16 to 20 mg/kg; in “Acute dermal toxicity” (in vivo, topical or ocular, male, read-out: Est. LD50), over 500 mg/kg. For the same molecule, the average mortality rating in the series on Asparagus Beetles Larvae (5 ppm) amounted to 3; in the series with Asparagus Beetles Larvae (10 ppm) it was 7; in the series on Asparagus Beetles Larvae (25 ppm), 7. Moreover, the “Est. LD50” value in the series “Acute dermal toxicity” (female) was over 500 mg/kg.

The values above are taken from patent publication US4122184A, “Benzimidazole insecticides” (priority 1977, dated 1978).
